According to US20120046273A1, “COMPOUNDS AND COMPOSITIONS FOR COGNITION-ENHANCEMENT, METHODS OF MAKING, AND METHODS OF TREATING” (MITHRIDION, INC., priority 2009, published 2012):
Where a name gives a salt, the structure may show the parent alone. Read-outs that look alike come from different tables or passages of the source. Values belong to the compound of their own block, whether it stands above or below them.

Key:
[1] = test system: healthy male volunteer human subjects; assay: Cholinergic side effects of immediate release capsules in human subjects; type: in vivo
Procedure: (§1) A single 5 mg capsule or 5×0.2 mg capsules (1 mg total dose) were administered orally to healthy male volunteer human subjects with 125 ml of water. Six such subjects receiving the 5 mg dose, and a different 6 subjects received the 1 mg dose.
Subjects were monitored, among other things, for typical signs of muscarinic cholinergic action, such as increased salivation, lachrimation and diaphoresis.

[2] = Metabolites in human serum samples; type: in vivo; settings: 5mg dose cohort
Procedure: The bioanalytical method for the extraction of metabolites from serum samples entailed adding 450 uL of a 90% acetonitrile +0.1% formic acid solution to 50 uL of the serum samples. The samples were vortexed and centrifuged at 16,000×g at 4° C. for 10 minutes. The supernatants were transferred to 3K molecular weight cut-off (MWCO) spin filters (Pall, Nanosep, #82031-346). Samples were filtered by centrifugation at 13,000×g at 4° C. for 20 minutes. The filtrates were transferred to a 96-well plate and sealed for LC/MS/MS analysis. The system used for this analysis was a Shimadzu Prominence HPLC system. […] The autosampler was maintained at 4° C. Injection volumes for all samples and standards were 40 uL. MRM methods for two possible metabolites were made. An API 3200 triple-quadrupole mass spectrometer with a Turbo V source (Applied Biosystems) was used, following commonly used procedures which would be readily set up by a person skilled in the art of LC-MS/MS. The counts of the characteristic parent and product ions of the free base metabolites were converted to concentration units by comparison with a standard calibration curve.

[3] = Serum pharmacokinetics of immediate release capsules in human subjects; type: in vivo; settings: male; for Cmax / half-life: oral
Procedure: The hydrochloride salt of MCD-386 (“MCD-386 HCl”) was formulated with the following excipients and loaded into #3 hard gelatin capsules (5mg dose) or #2 hard gelatin capsules (0.2 mg dose).
as §1
Venous blood samples were drawn at various intervals after dosing from each subject into standard tubes for bioanalytical and pharmacokinetic analysis. The blood was allowed to clot, and the serum separated, using common clinical laboratory techniques. Serum samples were stored at −20 deg C. until used for analysis.
MCD-386 HCl, which exists in serum principally as the protonated form of MCD-386, was assayed in clinical serum samples as follows. 200 μL aliquots of serum samples were spiked with 50.0 μL of diluent for subject samples and QC samples and 50 μL of the appropriate intermediate standard solution for standards. Twenty five microliters (25.0 μL) of working internal standard stock solution and 40.0 μL of 10 N sodium hydroxide was then added and the samples were vortex mixed. Three milliliters (3.00 mL) of ethyl acetate was added followed by 5 minutes of vigorous vortexing and centrifugation. The top organic layer was transferred to a clean tube, evaporated to dryness, and the sample was reconstituted with 100 μL of diluent (0.1% formic acid). A 10 μL aliquot of this reconstituted sample was injected into Phenomenex Synergy 4 μ POLAR-RP, 75×2.0 mm (P/N 00C-4336-B0) on a Waters Acuity UPLC LC system, and eluted using a gradient of from 12% to 90% acetonitrile containing 0.1% formic acid/0.1% formic acid in water. The eluant flow of the LC was injected by Turbo Ion Spray (positive ion) into a Sciex API 4000 (Applied Biosystems). The MS/MS transitions monitored were 181.1 m/z to 111.0 m/z for MCD-386 HCl and 186.1 m/z to 111.1 m/z for the internal standard, D5- MCD-386 HCl. The calibration curve was linear between 0.100 ng/mL and 50.0 ng/mL for MCD-386 HCl. The lower limit of quantitation (LLOQ) was 0.100 ng MCD-386 HCl per mL of serum. MCD-386 HCl concentrations are expressed as free base.
The bioanalytical results were analyzed using Win Nonlin software and common pharmacokinetic methods known to those skilled in the art.

[4] = Brain concentrations in rats after oral gavage; type: in vivo, rat; settings: rat, 10 mg/kg po, relative to MCD-386
Procedure: Long-Evans Hooded rats (Charles River: male, 250-350 g) were dosed with solutions of test compounds in PBS by oral gavage. At the desired time after dosing, the animals were anesthetized with isoflurane, and then euthanized by cervical dislocation. Blood was obtained by cardiac puncture, transferred to a 1.5 mL microcentrifuge tube containing 15U Heparin, and the plasma recovered after centrifugation. Brains were dissected, weighed, immediately chilled to 4° C., and homogenized using a PowerGen 125 homogenizer in five volumes of ice-cold 2% formic acid. Proteins were precipitated from plasma and brain homogenate with two and five volumes respectively of ice-cold 2% formic acid and clarified by centrifugation. The supernatant was ultra-filtered by centrifugation through a 3K MWCO spin column (Pall Life Sciences), following the manufacturer's instructions. The concentration of compound in the ultra-filtrate was subjected to reverse-phase liquid chromatography using a 150×2.1 mm Agilent C8 reverse-phase column on a Shimadzu Prominence LC, eluting the compounds with a gradient of 2% to 50% of acetonitrile+0.1% formic acid for compound MI-50,382, or an isocratic flow of 2% acetonitrile+0.1% formic acid for the rest of the compounds listed. The concentration of the compound in the column effluent was measured using an Applied Biosystems API-3200 triple quadrupole mass spectrometer equipped with an electrospray sample injection system. The counts of the characteristic parent and product ions of each test compound were converted to concentration units by comparison with a standard calibration curve.

[5] = Metabolites in serum and urine of dosed rats (LC-MS); type: in vivo; settings: rat serum/plasma or urine, oral dosing
Procedure: Oxadiazoles disclosed herein as well as other oxadiazoles were investigated to determine the formation of metabolites. Animals were dosed, blood taken, serum prepared, serum proteins precipitated and ultrafiltrates prepared as described in Example 6. In separate experiments, urine was collected from rats for 16-24 hours after dosing, using standard metabolic cages. The urine container and collected urine were maintained at 4° C. Urine was lyophilized, taken back into water. The ultrafiltrate was prepared by adding formic acid to a final concentration of 1% to the urine samples, then filtered through a 0.2 um nylon membrane. The ultrafiltrate was subjected to LC-MS analysis. Instead of measuring the product ions in Q3, manual Q1 scans of the liquid chromatograph were undertaken, seeking parent ions of potential metabolites of the compounds. The criteria for identifying metabolites were as follows: (1) the ion should be present in the sera or urines of dosed rats, but not in sera or urines from non-dosed rats (2) the ion should be identifiable as a metabolic derivative of the dosed compound (e.g. loss of a functional chemical moiety, addition of a hydroxyl group or a glucuronic acid moiety, etc). Metabolites were determined not to be present if no compound meeting the above criteria could be detected in serum or urine.

[6] = Brain/plasma concentration ratio after oral dosing to rats; settings: rat
[7] = PAMPA test
[8] = test system: apomorphine induced climbing; assay: Apomorphine induced climbing model of psychosis; type: in vivo, CD-I mice; settings: mice, sc
Procedure: As described in Costall et. al. European Journal of Pharmacology 1978, 50, 39. individual CD-I mice, 1-2 months old, were placed in a cylindrical wire mesh cage (13.2 cm high×13.2 cm diameter) constructed of steel wire 1 mm thick spaced at 1.2 cm^2. Cylinders were placed in a standard OptiMICE mouse cage (29×32×9×29 cm wide and 14 cm high) with adequate wood chip bedding provided. Observations of climbing (defined as 3 or more paws off the ground) were carried out every 5 minutes at a duration of 1 minute for 30 minutes. Animals were injected subcutaneously under isoflurane anesthesia with test compounds, reference compounds, which included clozapine, haloperidol, olanzapine and xanomeline, or PBS as a control. This was followed 5 minutes later by 2 mg/kg apomorphine hydrochloride. All drugs were dissolved in PBS or a mixture of (by volume) 96% PBS and 4% hydroxypropyl-beta-cyclodextrin, and dosed at a rate of 5 ml per kilogram of body weight. Following injections, animals were replaced in the mesh cages and observed for climbing (defined as 3 or more paws off the ground) every 5 minutes for a duration of 1 minute for 60 minutes after dosing.

[9] = Plasma concentration in rats, iontophoresis patch versus oral gavage; type: in vivo; settings: Long Evans Hooded, rat
Text: Two patches were made up, consisting (in order from the outer layer to the skin contacting surface, respectively): adhesive tape (Transpore, 27 mm wide, 3M), circular stainless steel electrodes (22 mm dia) with a central hole for a stainless steel machine screw to which the electrode wire was attached, and 2 layers of 3MM CHR filter paper (Cat #3030-861, Whatman International, Ltd).
The mid-dorsal area of a Long Evans Hooded rat (approximate weight, 320 grams), surgically prepared with a jugular vein catheter (Charles River), was shaved and the skin was then cleaned using an Electrode Prep Pad (Professional Disposables, Inc, Cat #B59800). […]
Blood (400 μl) was withdrawn from the catheters in each rat every 30 minutes, transferred to 1.5 ml centrifuge tubes containing heparin (15 units/tube), and the plasma was separated by centrifugation from the cellular components. The plasma samples were maintained at 4 deg C. until analyzed. […]
The ultra-filtrates were subjected to reverse-phase liquid chromatography using a 150×2.1 mm Agilent C8 reverse-phase column on a Shimadzu Prominence LC, eluting the MCD-386 with an isocratic flow of 2% acetonitrile+0.1% formic acid. The concentration of MCD-386 in the column effluent was measured using an Applied Biosystems API-3200 triple quadrupole mass spectrometer equipped with a Turbo V source (electrospray sample injection) system. […]

main metabolite of the free base identified in serum samples [2]: five out of six subjects | Cmax ([3]; 6 subjects receiving 1 mg of MCD-386 HCl): ≤ 8 ng/mL | Cmax ([3]; 6 subjects receiving 5 mg of MCD-386 HCl): 7.9 to 25.2 ng/mL | Tmax ([3]; oral immediate release capsules): 1 to 1.5 h | half-life ([3]; 0.2 mg, cohort of 6 subjects receiving 0.2 mg, +/- SD, read-out: mean half-life (converted)): 1.2 h | half-life ([3]; 1 mg, 1 mg cohort, +/- SD, read-out: half-life of the free base (converted)): 1.44 h | half-life ([3]; 5 mg, 5 mg cohort excluding one subject, read-out: mean half-life for the other 5 subjects (converted)): 1.44 h | half-life ([3]; 5 mg, 5 mg cohort, +/- SD, read-out: half-life of the free base (converted)): 1.71 h | half-life ([3]; 5 mg, 5 mg cohort, subject with the longest half-life, read-out: half-life in one subject (converted)): 2.93 h
SMILES: CCc1noc(C2CN=CNC2)n1 (stereo not drawn) [MCD-386 HCl, 5-(3-ethyl-1,2,4-oxadiazol-5-yl)-1,4,5,6-tetrahydropyrimidine]
observable cholinergic side effects ([1]; 1 mg total dose cohort, 6 subjects): none of the subjects | subjects with mild hypersalivation ([1]; 5 mg cohort): One | subjects with mild, transient diaphoresis ([1]; 5 mg cohort): Two | subjects with moderate diaphoresis ([1]; 5 mg cohort): two | signs of muscarinic cholinergic activity ([1]; 5 mg cohort, 6 subjects): four subjects showed signs of muscarinic cholinergic activity

Brain Cmax (10 mg/kg po) MCD-386 = 1.00 [4]: 1.00 | Presence of metabolites (10 mg/kg po) [5]: Yes | Kp at 1 hour [6]: 0.07 to 0.13 | PAMPA (? × 106) [7]: 0.05 ? × 106 | concentration at 30 minutes ([9]; other: iontophoresis patch (transdermal), 3.2 mg/kg, iontophoresis patch, dose 3.2 mg/kg): ~850 nM | concentration at 30 minutes ([9]; po, 10 mg/kg, oral gavage): 911 nM
SMILES: CCc1noc(C2CN=CNC2)n1 (stereo not drawn) [Compound 18, 3-ethyl-5-(1,4,5,6-tetrahydropyrimidin-5-yl)-1,2,4-oxadiazole]
activity in the apomorphine induced climbing model [8]: inactive
